Positions count from the first letter of the chain named. Several values for one entry are separate records, joined by “and”; a condition that tells them apart may be missing. Equal values may be shown once. One block for each compound: values may come before it.
Columns and labels:
σ2 receptors [1] = biological target: σ2 receptors (Homo sapiens, UniProt Q5BJF2); conditions: cited from earlier work
σ1 receptors [2] = biological target: σ1 receptors (Homo sapiens, UniProt Q99720); conditions: cited from earlier work
σ1 receptors (Homo sapiens, UniProt Q99720), sequence (Q99720 whole entry): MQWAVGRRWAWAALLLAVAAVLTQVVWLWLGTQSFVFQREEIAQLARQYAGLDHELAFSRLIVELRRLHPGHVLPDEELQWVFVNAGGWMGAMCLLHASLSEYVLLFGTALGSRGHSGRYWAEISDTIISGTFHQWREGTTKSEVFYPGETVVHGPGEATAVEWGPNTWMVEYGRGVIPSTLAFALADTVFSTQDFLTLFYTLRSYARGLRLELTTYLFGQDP

EMT-6 tumors = assay: Biodistribution of 18F-labeled ligands in mice bearing EMT-6 tumors; format: in vivo, female Balb/c mice; conditions: for clearance from the blood (in words): mouse, in vivo
Method: This example illustrates in vivo evaluation of compounds of the present teachings. All animal experiments were conducted in compliance with the Guidelines for the Care and Use of Research Animals established by Washington University's Animal Studies Committee. EMT-6 mouse mammary adenocarcinoma cells (5×10^5 cells in 100 uL of phosphate-buffered saline) were implanted subcutaneously in the scapular region of female Balb/c mice (˜2-month old and 17-22 g; Charles River Laboratories). […] Groups of at least 4 mice were used for each time point. […] After counting, the percentage of the injected dose per gram of tissue (%ID/g) was calculated. The tumor/organ ratios were calculated by dividing the %ID/g of the tumor by the %ID/g of each organ.

σ2 receptors [3] = biological target: T1, σ2 receptors (Mus musculus, UniProt Q8VD00); assay: Blocking study: co-injection of 1 mg/kg YUN-143 in EMT-6 tumor-bearing mice; format: in vivo; conditions: 1 mg/kg YUN-143, 1 h post-injection
T1 construct: from tissue; host or cells: EMT-6 tumours in female Balb/c mice, in vivo
T1 sequence (Q8VD00 1-176): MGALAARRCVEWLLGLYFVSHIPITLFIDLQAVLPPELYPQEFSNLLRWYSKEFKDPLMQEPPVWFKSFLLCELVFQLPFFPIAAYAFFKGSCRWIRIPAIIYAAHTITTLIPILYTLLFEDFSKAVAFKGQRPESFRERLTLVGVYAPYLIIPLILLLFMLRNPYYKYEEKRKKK
Method: These blocking studies in tumor-bearing mice were conducted by co-injecting 1 mg/kg of cold N-(4-fluorobenzyl) piperidinyl-4-(3-bromophenyl)acetamide (YUN-143) with [^18F]3c or [^18F]3f.

[4] = Log D calculated using the program ACD/log D; conditions: spacer group four carbons (3c) versus two carbons (3a)
σ1 receptors [5] = biological target: T2, σ1 receptors (Cavia porcellus, UniProt Q60492); assay: σ1 receptor binding assay, [^3H](+)-pentazocine, guinea pig brain membrane homogenates; conditions: spacer group four carbons (3c) versus two carbons (3a)
T2 sequence (Q60492 whole entry): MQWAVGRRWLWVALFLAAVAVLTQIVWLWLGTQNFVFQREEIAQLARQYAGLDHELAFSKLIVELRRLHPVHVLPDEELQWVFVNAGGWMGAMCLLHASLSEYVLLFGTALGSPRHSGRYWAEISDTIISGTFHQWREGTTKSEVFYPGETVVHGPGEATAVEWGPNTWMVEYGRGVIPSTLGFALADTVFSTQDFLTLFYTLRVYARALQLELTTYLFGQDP
Method: (§1) In these assays, the novel sigma ligands were dissolved in N,N-dimethylformamide (DMF), DMSO or ethanol, and then diluted in 50 mM Tris-HCl buffer containing 150 mM NaCl and 100 mM EDTA at pH 7.4 prior to performing the σ1 and σ2 receptor binding assays. […] The samples were harvested and filtered rapidly through a 96-well fiber glass filter plate (millipore, Billerica, Mass.) that had been presoaked with 100 μL of 50 mM Tris-HCl buffer at pH 8.0 for 1 h.
(§2) The Ki values were determine from Scatchard plots.

σ2 receptors [6] = biological target: T3, σ2 receptors (Rattus norvegicus, UniProt Q5U3Y7); assay: σ2 receptor binding assay, [^3H]DTG in the presence of (+)-pentazocine, rat liver membrane homogenates
T3 construct: conducted using rat liver membrane homogenates; from tissue; host or cells: rat liver membrane homogenates
T3 sequence (Q5U3Y7 1-176): T1 sequence (Q8VD00 1-176) with L4V, A5T, L26M, V33L, L71F, A105V, L118I, V127I, S136N, Y169F
Method: The incubation time was 120 min at room temperature. […] All other procedures were identical to those described for the σ1 receptor binding assay above.

σ1 receptors [7] = biological target: T2, σ1 receptors
Method: as §1, §2

[8] = 60 min (1 h) after i.v. injection
[9] = 120 min (2 h) after i.v. injection

σ2 receptors (Homo sapiens, UniProt Q5BJF2), sequence (Q5BJF2 whole entry): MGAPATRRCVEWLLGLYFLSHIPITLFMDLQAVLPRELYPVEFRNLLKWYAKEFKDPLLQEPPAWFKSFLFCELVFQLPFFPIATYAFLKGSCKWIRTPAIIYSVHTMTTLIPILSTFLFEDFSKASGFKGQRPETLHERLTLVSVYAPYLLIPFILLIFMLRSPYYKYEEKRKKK

Structure (SMILES): O=C(Cc1cccc(Br)c1)NC1CCN(Cc2ccc(F)cc2)CC1 [YUN-143, N-(4-fluorobenzyl)piperidinyl-4-(3-bromophenyl) acetamide]
affinity for σ2 receptors (in words) (σ2 receptors [1]): high affinity | affinity for σ1 receptors (in words) (σ1 receptors [2]): high affinity

Biodistribution: blood (EMT-6 tumors; 5 min after i.v. injection): 2.49 ± 0.49 %ID/g | Biodistribution: bone (EMT-6 tumors; 5 min after i.v. injection): 2.49 ± 0.19 %ID/g | Biodistribution: brain (EMT-6 tumors; 5 min after i.v. injection): 0.76 ± 0.06 %ID/g | Biodistribution: fat (EMT-6 tumors; 5 min after i.v. injection): 1.95 ± 0.33 %ID/g | Biodistribution: heart (EMT-6 tumors; 5 min after i.v. injection): 3.73 ± 0.15 %ID/g | Biodistribution: kidney (EMT-6 tumors; 5 min after i.v. injection): 29.18 ± 1.92 %ID/g | Biodistribution: liver (EMT-6 tumors; 5 min after i.v. injection): 23.33 ± 4.22 %ID/g | Biodistribution: lung (EMT-6 tumors; 5 min after i.v. injection): 10.26 ± 0.71 %ID/g | Biodistribution: muscle (EMT-6 tumors; 5 min after i.v. injection): 1.86 ± 0.08 %ID/g | Biodistribution: tumor (tumor uptake) (EMT-6 tumors; 5 min after i.v. injection): 3.67 ± 0.45 %ID/g | Biodistribution: blood (EMT-6 tumors; 30 min after i.v. injection): 1.16 ± 0.10 %ID/g | Biodistribution: bone (EMT-6 tumors; 30 min after i.v. injection): 0.96 ± 0.15 %ID/g | Biodistribution: brain (EMT-6 tumors; 30 min after i.v. injection): 0.27 ± 0.05 %ID/g | Biodistribution: fat (EMT-6 tumors; 30 min after i.v. injection): 0.59 ± 0.13 %ID/g | Biodistribution: heart (EMT-6 tumors; 30 min after i.v. injection): 1.15 ± 0.06 %ID/g | Biodistribution: kidney (EMT-6 tumors; 30 min after i.v. injection): 6.86 ± 0.45 %ID/g | Biodistribution: liver (EMT-6 tumors; 30 min after i.v. injection): 10.51 ± 0.87 %ID/g | Biodistribution: lung (EMT-6 tumors; 30 min after i.v. injection): 2.36 ± 0.19 %ID/g | Biodistribution: muscle (EMT-6 tumors; 30 min after i.v. injection): 0.70 ± 0.19 %ID/g | Biodistribution: tumor (tumor uptake) (EMT-6 tumors; 30 min after i.v. injection): 2.54 ± 0.27 %ID/g | Biodistribution: tumor (tumor uptake) (EMT-6 tumors; [8]): 1.14 ± 0.10 %ID/g | Biodistribution: blood (EMT-6 tumors; 60 min after i.v. injection): 0.56 ± 0.08 %ID/g | Biodistribution: bone (EMT-6 tumors; 60 min after i.v. injection): 0.55 ± 0.07 %ID/g | Biodistribution: brain (EMT-6 tumors; 60 min after i.v. injection): 0.18 ± 0.03 %ID/g | Biodistribution: fat (EMT-6 tumors; 60 min after i.v. injection): 0.22 ± 0.04 %ID/g | Biodistribution: heart (EMT-6 tumors; 60 min after i.v. injection): 0.55 ± 0.07 %ID/g | Biodistribution: kidney (EMT-6 tumors; 60 min after i.v. injection): 2.51 ± 0.51 %ID/g | Biodistribution: liver (EMT-6 tumors; 60 min after i.v. injection): 4.14 ± 0.55 %ID/g | Biodistribution: lung (EMT-6 tumors; 60 min after i.v. injection): 0.88 ± 0.12 %ID/g | Biodistribution: muscle (EMT-6 tumors; 60 min after i.v. injection): 0.34 ± 0.05 %ID/g | Biodistribution: tumor (tumor uptake) (EMT-6 tumors; [9]): 0.64 %ID/g and 0.64 ± 0.10 %ID/g | Biodistribution: blood (EMT-6 tumors; 120 min after i.v. injection): 0.35 ± 0.05 %ID/g | Biodistribution: bone (EMT-6 tumors; 120 min after i.v. injection): 0.45 ± 0.11 %ID/g | Biodistribution: brain (EMT-6 tumors; 120 min after i.v. injection): 0.12 ± 0.02 %ID/g | Biodistribution: fat (EMT-6 tumors; 120 min after i.v. injection): 0.08 ± 0.02 %ID/g | Biodistribution: heart (EMT-6 tumors; 120 min after i.v. injection): 0.27 ± 0.04 %ID/g | Biodistribution: kidney (EMT-6 tumors; 120 min after i.v. injection): 0.87 ± 0.13 %ID/g | Biodistribution: liver (EMT-6 tumors; 120 min after i.v. injection): 2.05 ± 0.43 %ID/g | Biodistribution: lung (EMT-6 tumors; 120 min after i.v. injection): 0.43 ± 0.07 %ID/g | Biodistribution: muscle (EMT-6 tumors; 120 min after i.v. injection): 0.24 ± 0.08 %ID/g | tumor:fat ratio (EMT-6 tumors; 2 h after i.v. injection): ~8 | clearance from the blood (in words) (EMT-6 tumors): rapid clearance from the blood | decrease in the tumor:fat ratio on co-injection of YUN-143 (σ2 receptors [3]): ~50% | decrease in the tumor:muscle ratio on co-injection of YUN-143 (σ2 receptors [3]): ~50%
Structure (SMILES): COc1cc2c(cc1OC)CN(CCCCNC(=O)c1cc(C)ccc1OCC[18F])CC2 [[^18F]3c]

Biodistribution: blood (EMT-6 tumors; 5 min after i.v. injection): 1.82 ± 0.25 %ID/g | Biodistribution: bone (EMT-6 tumors; 5 min after i.v. injection): 2.23 ± 0.56 %ID/g | Biodistribution: brain (EMT-6 tumors; 5 min after i.v. injection): 0.71 ± 0.09 %ID/g | Biodistribution: fat (EMT-6 tumors; 5 min after i.v. injection): 4.13 ± 0.86 %ID/g | Biodistribution: heart (EMT-6 tumors; 5 min after i.v. injection): 5.60 ± 0.45 %ID/g | Biodistribution: kidney (EMT-6 tumors; 5 min after i.v. injection): 19.98 ± 1.66 %ID/g | Biodistribution: liver (EMT-6 tumors; 5 min after i.v. injection): 15.21 ± 2.21 %ID/g | Biodistribution: lung (EMT-6 tumors; 5 min after i.v. injection): 18.47 ± 3.07 %ID/g | Biodistribution: muscle (EMT-6 tumors; 5 min after i.v. injection): 2.50 ± 0.33 %ID/g | Biodistribution: tumor (tumor uptake) (EMT-6 tumors; 5 min after i.v. injection): 3.05 ± 0.43 %ID/g | Biodistribution: blood (EMT-6 tumors; 30 min after i.v. injection): 1.23 ± 0.28 %ID/g | Biodistribution: bone (EMT-6 tumors; 30 min after i.v. injection): 2.01 ± 0.53 %ID/g | Biodistribution: brain (EMT-6 tumors; 30 min after i.v. injection): 0.27 ± 0.04 %ID/g | Biodistribution: fat (EMT-6 tumors; 30 min after i.v. injection): 1.36 ± 0.50 %ID/g | Biodistribution: heart (EMT-6 tumors; 30 min after i.v. injection): 1.54 ± 0.31 %ID/g | Biodistribution: kidney (EMT-6 tumors; 30 min after i.v. injection): 7.73 ± 2.25 %ID/g | Biodistribution: liver (EMT-6 tumors; 30 min after i.v. injection): 10.73 ± 2.98 %ID/g | Biodistribution: lung (EMT-6 tumors; 30 min after i.v. injection): 3.75 ± 0.58 %ID/g | Biodistribution: muscle (EMT-6 tumors; 30 min after i.v. injection): 0.73 ± 0.14 %ID/g | Biodistribution: tumor (tumor uptake) (EMT-6 tumors; 30 min after i.v. injection): 3.11 ± 0.16 %ID/g | Biodistribution: tumor (tumor uptake) (EMT-6 tumors; [8]): 2.15 %ID/g and 2.15 ± 0.25 %ID/g | Biodistribution: blood (EMT-6 tumors; 60 min after i.v. injection): 0.65 ± 0.09 %ID/g | Biodistribution: bone (EMT-6 tumors; 60 min after i.v. injection): 0.93 ± 0.16 %ID/g | Biodistribution: brain (EMT-6 tumors; 60 min after i.v. injection): 0.14 ± 0.02 %ID/g | Biodistribution: fat (EMT-6 tumors; 60 min after i.v. injection): 0.47 ± 0.07 %ID/g | Biodistribution: heart (EMT-6 tumors; 60 min after i.v. injection): 0.69 ± 0.06 %ID/g | Biodistribution: kidney (EMT-6 tumors; 60 min after i.v. injection): 3.50 ± 0.80 %ID/g | Biodistribution: liver (EMT-6 tumors; 60 min after i.v. injection): 5.57 ± 0.31 %ID/g | Biodistribution: lung (EMT-6 tumors; 60 min after i.v. injection): 1.51 ± 0.13 %ID/g | Biodistribution: muscle (EMT-6 tumors; 60 min after i.v. injection): 0.40 ± 0.07 %ID/g | Biodistribution: tumor (tumor uptake) (EMT-6 tumors; [9]): 1.15 %ID/g and 1.15 ± 0.23 %ID/g | Biodistribution: blood (EMT-6 tumors; 120 min after i.v. injection): 0.28 ± 0.01 %ID/g | Biodistribution: bone (EMT-6 tumors; 120 min after i.v. injection): 0.59 ± 0.09 %ID/g | Biodistribution: brain (EMT-6 tumors; 120 min after i.v. injection): 0.08 ± 0.01 %ID/g | Biodistribution: fat (EMT-6 tumors; 120 min after i.v. injection): 0.17 ± 0.05 %ID/g | Biodistribution: heart (EMT-6 tumors; 120 min after i.v. injection): 0.39 ± 0.04 %ID/g | Biodistribution: kidney (EMT-6 tumors; 120 min after i.v. injection): 1.34 ± 0.10 %ID/g | Biodistribution: liver (EMT-6 tumors; 120 min after i.v. injection): 2.61 ± 0.69 %ID/g | Biodistribution: lung (EMT-6 tumors; 120 min after i.v. injection): 0.74 ± 0.03 %ID/g | Biodistribution: muscle (EMT-6 tumors; 120 min after i.v. injection): 0.15 ± 0.01 %ID/g | tumor:fat ratio (EMT-6 tumors; 2 h after i.v. injection): ~7 | tumor:muscle ratio (EMT-6 tumors; 2 h after i.v. injection): ~8 | clearance from the blood (in words) (EMT-6 tumors): rapid clearance from the blood | decrease in the tumor:fat ratio on co-injection of YUN-143 (σ2 receptors [3]): ~50% | decrease in the tumor:muscle ratio on co-injection of YUN-143 (σ2 receptors [3]): ~50%
Structure (SMILES): COc1cc2c(cc1OC)CN(CCCCNC(=O)c1cc(I)cc(OC)c1OCC[18F])CC2 [[^18F]3f]

increase in the log D value relative to 3a [4]: 0.5 unit | increase in the affinity for σ1 receptors relative to 3a (σ1 receptors [5]): 69 fold | σ1:σ2 Ratio (σ2 receptors [6]; ratio of Ki values): 48 | increase in the affinity for σ2 receptors relative to 3a (σ2 receptors [6]; spacer group four carbons (3c) versus two carbons (3a)): 15 fold | Ki (σ1 receptors [7]): 330 ± 25 nM
Structure (SMILES): COc1cc2c(cc1OC)CN(CCCCNC(=O)c1cc(C)ccc1OCCF)CC2 [compound 3c, N-[6,7-dimethoxy-3,4-dihydro-1H-isoquinolin-2-yl-butyl]-2-(2-fluoro-ethoxy)-5-methyl-benzamide]

Reference: patent US7659400B2, “Radiolabelled benzamide analogues, their synthesis and use in diagnostic imaging” (Washington University, priority 2003, dated 2010)
